Assay results reported in patent US20120178085A1, “METHOD FOR EVALUATION OF CULTURED CELLS, AND METHOD FOR SCREENING OF BIOMARKER” (priority 2009, published 2012).

System: Human liver cancer-derived cell line (HuH-7)
Test: miRNA released into serum-free culture medium from HuH-7 cells treated with carbon tetrachloride (real-time PCR)
Format: cell-based
Settings: carbon tetrachloride 0-1000 μM, 7-day culture in serum-free maintenance medium, FIG. 2
Method: Human liver cancer-derived cell line (HuH-7, purchased from ATCC) was seeded in a culture vessel of 12-well culture plate at a cell density of 20000 cells/cm^2, and cells were cultured for 7 days in a serum-free maintenance medium containing carbon tetrachloride, which was known to injure liver tissue and liver cells, at a relatively low concentration of 0-1000 μM used in World J Gastroenterol. 2008 Jun. 21; 14(23):3693-709. The maintenance medium used herein was the same as one used in Example 1.
Each culture medium was collected after 7-day culturing, and cells were removed by filtration through a 0.22 μm filter to obtain samples.
cDNA samples of Poly(A)miRNA samples were obtained in the same manner as in Example 1.
Real-time PCR was carried out using Platinum SYBR Green (produced by Invitrogen) to measure hsa-miR-21, hsa-miR-122, hsa-miR-451 and hsa-miR-16 contained in the cDNA samples. The primers used were as follows.

## ClC(Cl)(Cl)Cl [carbon tetrachloride]
  amount of miRNA released from cells into culture medium (hsa-miR-21, hsa-miR-122, hsa-miR-451, hsa-miR-16): increased
